Results published in PubChem BioAssay (NCI).
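Test compounds were applied to cells in 96-well plates for 48 hours at 5 doses. Definition used: TGI = concentration required for complete inhibition of growth.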

Tests used:
Assay in all cases: DTP human tumour cell line panel, 48 h
SK-MEL-5 melanoma = system: SK-MEL-5 melanoma
MOLT-4 leukemia = system: MOLT-4 leukemia
786-0 renal = system: 786-0 renal
SF-539 CNS = system: SF-539 CNS
A498 renal = system: A498 renal
MDA-N = system: MDA-N
HT29 colon = system: HT29 colon
SNB-19 CNS = system: SNB-19 CNS
RPMI-8226 leukemia = system: RPMI-8226 leukemia
RXF 393 renal = system: RXF 393 renal
PC-3 prostate = system: PC-3 prostate
MDA-MB-231 breast = system: MDA-MB-231 breast
U251 CNS = system: U251 CNS
K-562 leukemia = system: K-562 leukemia
SNB-75 CNS = system: SNB-75 CNS
HOP-92 NSCLC = system: HOP-92 NSCLC
MDA-MB-435 = system: MDA-MB-435
SR leukemia = system: SR leukemia
MCF7 breast = system: MCF7 breast
UO-31 renal = system: UO-31 renal
OVCAR-5 ovarian = system: OVCAR-5 ovarian
OVCAR-8 ovarian = system: OVCAR-8 ovarian
NCI-H460 lung = system: NCI-H460 lung
ACHN renal = system: ACHN renal
A549 NSCLC = system: A549 NSCLC
HL-60(TB) leukemia = system: HL-60(TB) leukemia
T-47D breast = system: T-47D breast
OVCAR-3 ovarian = system: OVCAR-3 ovarian
BT-549 breast = system: BT-549 breast
UACC-257 melanoma = system: UACC-257 melanoma
DU-145 prostate = system: DU-145 prostate
SN12C renal = system: SN12C renal
HOP-62 NSCLC = system: HOP-62 NSCLC
OVCAR-4 ovarian = system: OVCAR-4 ovarian
NCI-H226 lung = system: NCI-H226 lung
IGROV1 ovarian = system: IGROV1 ovarian
NCI/ADR-RES ovarian = system: NCI/ADR-RES ovarian
M14 melanoma = system: M14 melanoma
SF-295 CNS = system: SF-295 CNS
SK-MEL-2 melanoma = system: SK-MEL-2 melanoma
SF-268 CNS = system: SF-268 CNS
KM12 colon = system: KM12 colon
TK-10 renal = system: TK-10 renal
UACC-62 melanoma = system: UACC-62 melanoma
COLO 205 colon = system: COLO 205 colon
MALME-3M melanoma = system: MALME-3M melanoma
LOX IMVI melanoma = system: LOX IMVI melanoma
HCT-15 colon = system: HCT-15 colon
SK-OV-3 ovarian = system: SK-OV-3 ovarian
EKVX NSCLC = system: EKVX NSCLC
SW-620 colon = system: SW-620 colon
NCI-H23 lung = system: NCI-H23 lung
HS 578T breast = system: HS 578T breast
HCT-116 colon = system: HCT-116 colon
SK-MEL-28 melanoma = system: SK-MEL-28 melanoma
CCRF-CEM leukemia = system: CCRF-CEM leukemia
HCC-2998 colon = system: HCC-2998 colon
NCI-H522 lung = system: NCI-H522 lung
CAKI-1 renal = system: CAKI-1 renal

## CN(C)CCCNCc1cccc2ccccc12
SK-MEL-5 melanoma
  TGI: > 100 µM
MOLT-4 leukemia
  TGI: > 100 µM
786-0 renal
  TGI: > 100 µM
SF-539 CNS
  TGI: > 100 µM
A498 renal
  TGI: > 100 µM
MDA-N
  TGI: > 100 µM
HT29 colon
  TGI: > 100 µM
SNB-19 CNS
  TGI: > 100 µM
RPMI-8226 leukemia
  TGI: > 100 µM
RXF 393 renal
  TGI: > 100 µM
PC-3 prostate
  TGI: > 100 µM
MDA-MB-231 breast
  TGI: > 100 µM
U251 CNS
  TGI: > 100 µM
K-562 leukemia
  TGI: > 100 µM
SNB-75 CNS
  TGI: > 100 µM
HOP-92 NSCLC
  TGI: > 100 µM
MDA-MB-435
  TGI: > 100 µM
SR leukemia
  TGI: 68.5 µM
MCF7 breast
  TGI: > 100 µM
UO-31 renal
  TGI: > 100 µM
OVCAR-5 ovarian
  TGI: > 100 µM
OVCAR-8 ovarian
  TGI: > 100 µM
NCI-H460 lung
  TGI: > 100 µM
ACHN renal
  TGI: > 100 µM
A549 NSCLC
  TGI: > 100 µM
HL-60(TB) leukemia
  TGI: > 100 µM
T-47D breast
  TGI: > 100 µM
OVCAR-3 ovarian
  TGI: > 100 µM
BT-549 breast
  TGI: > 100 µM
UACC-257 melanoma
  TGI: > 100 µM
DU-145 prostate
  TGI: > 100 µM
SN12C renal
  TGI: > 100 µM
HOP-62 NSCLC
  TGI: > 100 µM
OVCAR-4 ovarian
  TGI: > 100 µM
NCI-H226 lung
  TGI: > 100 µM
IGROV1 ovarian
  TGI: > 100 µM
NCI/ADR-RES ovarian
  TGI: > 100 µM
M14 melanoma
  TGI: > 100 µM
SF-295 CNS
  TGI: > 100 µM
SK-MEL-2 melanoma
  TGI: > 100 µM
SF-268 CNS
  TGI: > 100 µM
KM12 colon
  TGI: > 100 µM
TK-10 renal
  TGI: > 100 µM
UACC-62 melanoma
  TGI: > 100 µM
COLO 205 colon
  TGI: > 100 µM
MALME-3M melanoma
  TGI: > 100 µM
LOX IMVI melanoma
  TGI: > 100 µM
HCT-15 colon
  TGI: > 100 µM
SK-OV-3 ovarian
  TGI: > 100 µM
EKVX NSCLC
  TGI: > 100 µM
SW-620 colon
  TGI: > 100 µM
NCI-H23 lung
  TGI: > 100 µM
HS 578T breast
  TGI: > 100 µM
HCT-116 colon
  TGI: > 100 µM
SK-MEL-28 melanoma
  TGI: > 100 µM
CCRF-CEM leukemia
  TGI: > 100 µM

## COc1ccccc1C(=O)N(C)c1ccc(Cl)c(C(=O)OC(C)C)c1
SK-MEL-5 melanoma
  TGI: 58.3 µM
MOLT-4 leukemia
  TGI: > 100 µM
786-0 renal
  TGI: > 100 µM
SF-539 CNS
  TGI: > 100 µM
A498 renal
  TGI: > 100 µM
MDA-N
  TGI: > 100 µM
HT29 colon
  TGI: > 100 µM
SNB-19 CNS
  TGI: > 100 µM
RPMI-8226 leukemia
  TGI: > 100 µM
PC-3 prostate
  TGI: > 100 µM
MDA-MB-231 breast
  TGI: > 100 µM
U251 CNS
  TGI: > 100 µM
HCC-2998 colon
  TGI: > 100 µM
SNB-75 CNS
  TGI: > 100 µM
HOP-92 NSCLC
  TGI: > 100 µM
MDA-MB-435
  TGI: > 100 µM
MCF7 breast
  TGI: > 100 µM
UO-31 renal
  TGI: > 100 µM
OVCAR-5 ovarian
  TGI: > 100 µM
OVCAR-8 ovarian
  TGI: > 100 µM
NCI-H460 lung
  TGI: > 100 µM
ACHN renal
  TGI: > 100 µM
A549 NSCLC
  TGI: > 100 µM
T-47D breast
  TGI: 85.7 µM
NCI-H522 lung
  TGI: > 100 µM
OVCAR-3 ovarian
  TGI: > 100 µM
BT-549 breast
  TGI: 97.7 µM
UACC-257 melanoma
  TGI: > 100 µM
DU-145 prostate
  TGI: > 100 µM
SN12C renal
  TGI: > 100 µM
CAKI-1 renal
  TGI: > 100 µM
OVCAR-4 ovarian
  TGI: > 100 µM
NCI-H226 lung
  TGI: > 100 µM
IGROV1 ovarian
  TGI: > 100 µM
NCI/ADR-RES ovarian
  TGI: > 100 µM
M14 melanoma
  TGI: > 100 µM
SF-295 CNS
  TGI: 94.5 µM
SK-MEL-2 melanoma
  TGI: > 100 µM
SF-268 CNS
  TGI: > 100 µM
KM12 colon
  TGI: 68.7 µM
TK-10 renal
  TGI: > 100 µM
UACC-62 melanoma
  TGI: > 100 µM
COLO 205 colon
  TGI: > 100 µM
MALME-3M melanoma
  TGI: > 100 µM
LOX IMVI melanoma
  TGI: > 100 µM
HCT-15 colon
  TGI: > 100 µM
SK-OV-3 ovarian
  TGI: > 100 µM
EKVX NSCLC
  TGI: > 100 µM
SW-620 colon
  TGI: > 100 µM
NCI-H23 lung
  TGI: > 100 µM
HS 578T breast
  TGI: > 100 µM
HCT-116 colon
  TGI: > 100 µM
SK-MEL-28 melanoma
  TGI: > 100 µM
CCRF-CEM leukemia
  TGI: > 100 µM
